Results taken from the supplement of paper PMC10307832.

How the values were obtained:
Assay in all cases: relative viability (nuclei count vs DMSO), 5 days (fraction); higher = more cells survive
[1] = compound: Nc1ncn([C@H]2C[C@H](O)[C@@H](CO)O2)c(=O)n1 [Decitabine] + O=C(c1cc(Cc2n[nH]c(=O)c3ccccc23)ccc1F)N1CCN(C(=O)C2CC2)CC1 [Olaparib] (partner 8 µM)
Outline: (§1)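 For relative viability, nuclei counts in treated wells were divided by those in vehicle wells. Lung cancer cell lines had been pin-tool dosed in 1536-well plates the day after seeding and cultured for 5 days, then fixed and stained in one step (final 0.05% Triton X-100, 1% formaldehyde, 1 ug/ml Hoechst) and imaged at 4×. Doses were one drug alone or a fixed anchor-drug dose plus five library-drug doses (not always all listed) in √10 steps, and values are duplicate-plate medians.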

[2] = compound: Nc1ncn([C@H]2C[C@H](O)[C@@H](CO)O2)c(=O)n1 [Decitabine] + C[C@]1(O)C[C@@H](c2nc(-c3ccc4ccc(-c5ccccc5)nc4c3)c3c(N)nccn32)C1 [Linsitinib] (partner 1 µM)
Outline: as §1

[3] = compound: O=C(C[C@H]1NCCC[C@@H]1O)Cn1cnc2cc(Br)c(Cl)cc2c1=O (racemic) [Halofuginone] + CC(=O)Nc1cccc(-n2c(=O)n(C3CC3)c(=O)c3c(Nc4ccc(I)cc4F)n(C)c(=O)c(C)c32)c1 [Trametinib] (partner 0.02 µM)
Outline: as §1

[4] = compound: COc1cc2c(Oc3ccc4[nH]c(C)cc4c3F)ncnc2cc1OCCCN1CCCC1 [Cediranib] + C[C@]1(O)C[C@@H](c2nc(-c3ccc4ccc(-c5ccccc5)nc4c3)c3c(N)nccn32)C1 [Linsitinib] (partner 1 µM)
Outline: as §1

LK-2
relative viability ([1]; first compound 0.04 µM): 0.497 | relative viability ([1]; first compound 0.1265 µM): 0.38 | relative viability ([1]; first compound 0.4 µM): 0.297 | relative viability ([1]; first compound 1.265 µM): 0.211 | relative viability ([1]; first compound 4 µM): 0.24 | relative viability ([2]; first compound 0.04 µM): 0.462 | relative viability ([2]; first compound 0.1265 µM): 0.637 | relative viability ([2]; first compound 0.4 µM): 0.509 | relative viability ([2]; first compound 1.265 µM): 0.502 | relative viability ([2]; first compound 4 µM): 0.387 | relative viability ([3]; first compound 0.001 µM): 0.853 | relative viability ([3]; first compound 0.003162 µM): 0.775 | relative viability ([3]; first compound 0.01 µM): 0.592 | relative viability ([3]; first compound 0.03162 µM): 0.823 | relative viability ([3]; first compound 0.1 µM): 0.519 | relative viability ([4]; first compound 0.04 µM): 0.944 | relative viability ([4]; first compound 0.1265 µM): 0.492 | relative viability ([4]; first compound 0.4 µM): 0.651 | relative viability ([4]; first compound 1.265 µM): 0.548 | relative viability ([4]; first compound 4 µM): 0.51

LOU-NH91
relative viability ([1]; first compound 0.04 µM): 0.667 | relative viability ([1]; first compound 0.1265 µM): 0.742 | relative viability ([1]; first compound 0.4 µM): 0.649 | relative viability ([1]; first compound 1.265 µM): 0.577 | relative viability ([1]; first compound 4 µM): 0.601 | relative viability ([2]; first compound 0.04 µM): 0.575 | relative viability ([2]; first compound 0.1265 µM): 0.839 | relative viability ([2]; first compound 0.4 µM): 0.779 | relative viability ([2]; first compound 1.265 µM): 0.693 | relative viability ([2]; first compound 4 µM): 0.735 | relative viability ([3]; first compound 0.001 µM): 0.819 | relative viability ([3]; first compound 0.003162 µM): 0.817 | relative viability ([3]; first compound 0.01 µM): 0.724 | relative viability ([3]; first compound 0.03162 µM): 0.778 | relative viability ([3]; first compound 0.1 µM): 0.697 | relative viability ([4]; first compound 0.04 µM): 0.905 | relative viability ([4]; first compound 0.1265 µM): 1.2 | relative viability ([4]; first compound 0.4 µM): 0.915 | relative viability ([4]; first compound 1.265 µM): 0.969 | relative viability ([4]; first compound 4 µM): 0.759

LU99A
relative viability ([1]; first compound 0.04 µM): 0.247 | relative viability ([1]; first compound 0.1265 µM): 0.238 | relative viability ([1]; first compound 0.4 µM): 0.217 | relative viability ([1]; first compound 1.265 µM): 0.193 | relative viability ([1]; first compound 4 µM): 0.187 | relative viability ([2]; first compound 0.04 µM): 0.45 | relative viability ([2]; first compound 0.1265 µM): 0.584 | relative viability ([2]; first compound 0.4 µM): 0.603 | relative viability ([2]; first compound 1.265 µM): 0.442 | relative viability ([2]; first compound 4 µM): 0.374 | relative viability ([3]; first compound 0.001 µM): 0.554 | relative viability ([3]; first compound 0.003162 µM): 0.598 | relative viability ([3]; first compound 0.01 µM): 0.545 | relative viability ([3]; first compound 0.03162 µM): 0.589 | relative viability ([3]; first compound 0.1 µM): 0.536 | relative viability ([4]; first compound 0.04 µM): 0.517 | relative viability ([4]; first compound 0.4 µM): 0.565 | relative viability ([4]; first compound 1.265 µM): 0.518 | relative viability ([4]; first compound 4 µM): 0.573

NCI-H522
relative viability ([1]; first compound 0.04 µM): 0.544 | relative viability ([1]; first compound 0.1265 µM): 0.564 | relative viability ([1]; first compound 0.4 µM): 0.544 | relative viability ([1]; first compound 1.265 µM): 0.548 | relative viability ([1]; first compound 4 µM): 0.47 | relative viability ([3]; first compound 0.001 µM): 0.734 | relative viability ([3]; first compound 0.003162 µM): 0.753 | relative viability ([3]; first compound 0.01 µM): 0.791 | relative viability ([3]; first compound 0.03162 µM): 0.777 | relative viability ([3]; first compound 0.1 µM): 0.633

NCI-H1299
relative viability ([1]; first compound 0.04 µM): 0.963 | relative viability ([1]; first compound 0.1265 µM): 0.962 | relative viability ([1]; first compound 0.4 µM): 0.884 | relative viability ([1]; first compound 1.265 µM): 0.655 | relative viability ([1]; first compound 4 µM): 0.578 | relative viability ([2]; first compound 0.04 µM): 0.976 | relative viability ([2]; first compound 0.1265 µM): 1.06 | relative viability ([2]; first compound 0.4 µM): 1.03 | relative viability ([2]; first compound 1.265 µM): 0.918 | relative viability ([2]; first compound 4 µM): 0.802 | relative viability ([4]; first compound 0.04 µM): 1 | relative viability ([4]; first compound 0.1265 µM): 0.977 | relative viability ([4]; first compound 0.4 µM): 0.96 | relative viability ([4]; first compound 1.265 µM): 0.988 | relative viability ([4]; first compound 4 µM): 0.947

NCI-H1563
relative viability ([2]; first compound 0.04 µM): 1.33 | relative viability ([2]; first compound 0.1265 µM): 1.21 | relative viability ([2]; first compound 0.4 µM): 1.41 | relative viability ([2]; first compound 1.265 µM): 1.23 | relative viability ([2]; first compound 4 µM): 1.17 | relative viability ([4]; first compound 0.04 µM): 1.27 | relative viability ([4]; first compound 0.1265 µM): 1.32 | relative viability ([4]; first compound 0.4 µM): 1.22 | relative viability ([4]; first compound 1.265 µM): 1.3 | relative viability ([4]; first compound 4 µM): 1.22

NCI-H1648
relative viability ([1]; first compound 0.04 µM): 0.679 | relative viability ([1]; first compound 0.1265 µM): 0.516 | relative viability ([1]; first compound 0.4 µM): 0.484 | relative viability ([1]; first compound 1.265 µM): 0.424 | relative viability ([1]; first compound 4 µM): 0.301 | relative viability ([3]; first compound 0.001 µM): 0.46 | relative viability ([3]; first compound 0.003162 µM): 0.449 | relative viability ([3]; first compound 0.01 µM): 0.582 | relative viability ([3]; first compound 0.03162 µM): 0.495 | relative viability ([3]; first compound 0.1 µM): 0.497

NCI-H1650
relative viability ([1]; first compound 0.04 µM): 0.509 | relative viability ([1]; first compound 0.1265 µM): 0.367 | relative viability ([1]; first compound 0.4 µM): 0.259 | relative viability ([1]; first compound 1.265 µM): 0.2 | relative viability ([1]; first compound 4 µM): 0.207 | relative viability ([3]; first compound 0.001 µM): 0.656 | relative viability ([3]; first compound 0.003162 µM): 0.696 | relative viability ([3]; first compound 0.01 µM): 0.55 | relative viability ([3]; first compound 0.03162 µM): 0.57 | relative viability ([3]; first compound 0.1 µM): 0.216

NCI-H1703
relative viability ([1]; first compound 0.04 µM): 0.21 | relative viability ([1]; first compound 0.1265 µM): 0.21 | relative viability ([1]; first compound 0.4 µM): 0.287 | relative viability ([1]; first compound 1.265 µM): 0.145 | relative viability ([1]; first compound 4 µM): 0.166 | relative viability ([2]; first compound 0.04 µM): 0.546 | relative viability ([2]; first compound 0.1265 µM): 0.553 | relative viability ([2]; first compound 0.4 µM): 0.226 | relative viability ([2]; first compound 1.265 µM): 0.242 | relative viability ([2]; first compound 4 µM): 0.201 | relative viability ([4]; first compound 0.04 µM): 0.458 | relative viability ([4]; first compound 0.1265 µM): 0.452 | relative viability ([4]; first compound 0.4 µM): 0.372 | relative viability ([4]; first compound 1.265 µM): 0.26 | relative viability ([4]; first compound 4 µM): 0.183

NCI-H2170
relative viability ([1]; first compound 0.04 µM): 0.271 | relative viability ([1]; first compound 0.1265 µM): 0.201 | relative viability ([1]; first compound 0.4 µM): 0.216 | relative viability ([1]; first compound 1.265 µM): 0.137 | relative viability ([1]; first compound 4 µM): 0.134 | relative viability ([3]; first compound 0.001 µM): 0.856 | relative viability ([3]; first compound 0.003162 µM): 0.852 | relative viability ([3]; first compound 0.01 µM): 0.954 | relative viability ([3]; first compound 0.03162 µM): 0.948 | relative viability ([3]; first compound 0.1 µM): 0.868

NCI-H2342
relative viability ([1]; first compound 0.04 µM): 0.539 | relative viability ([1]; first compound 0.1265 µM): 0.368 | relative viability ([1]; first compound 0.4 µM): 0.433 | relative viability ([1]; first compound 1.265 µM): 0.351 | relative viability ([1]; first compound 4 µM): 0.249 | relative viability ([3]; first compound 0.001 µM): 0.816 | relative viability ([3]; first compound 0.003162 µM): 0.832 | relative viability ([3]; first compound 0.01 µM): 0.972 | relative viability ([3]; first compound 0.03162 µM): 0.85 | relative viability ([3]; first compound 0.1 µM): 0.823

SW 900
relative viability ([1]; first compound 0.04 µM): 0.563 | relative viability ([1]; first compound 0.1265 µM): 0.365 | relative viability ([1]; first compound 0.4 µM): 0.329 | relative viability ([1]; first compound 1.265 µM): 0.228 | relative viability ([1]; first compound 4 µM): 0.208 | relative viability ([3]; first compound 0.001 µM): 0.871 | relative viability ([3]; first compound 0.003162 µM): 0.941 | relative viability ([3]; first compound 0.03162 µM): 1.03 | relative viability ([3]; first compound 0.1 µM): 0.534
